ChEMBL document CHEMBL6153155, “Novel Cyclohexyl Amido Acid Antagonists of Lysophosphatidic Acid Type 1 Receptor for the Treatment of Pulmonary Fibrosis” (ACS Med Chem Lett, 2025)
Converted amounts (≈) assume the structure as drawn.

Tests used:
[1] = Total AUClast in female C57BL/6J mouse lung at 30 mg/kg, po measured after 24 hrs by UPLC-MS/MS analysis; format: ADME, organism-based; conditions: in vivo
[2] = Metabolic stability in human liver microsomes assessed as intrinsic clearance measured per mg of protein at 0.5 uM measured upto 45 mins in presence of NADPH regenerating system by HPLC-MS/MS analysis; format: ADME, Microsome; conditions: read-out: CLH
[3] = Volume of distribution at steady state in female C57BL/6J mouse at 2 mg/kg, iv measured after 24 hrs by UPLC-MS/MS analysis; format: ADME, organism-based; conditions: in vivo, read-out: Vdss
BSEP = BSEP (Homo sapiens, UniProt O95342); test: Inhibition of BSEP in cryopreserved sandwich-cultured human hepatocytes by measuring reduction in TCA biliary clearance using taurocholic acid as substrate at 50 uM relative to control; format: cell-based, Hepatocyte; conditions: cryopreserved sandwich-cultured hepatocytes, probe taurocholic acid
[4] = Total Cmax in female C57BL/6J mouse plasma at 30 mg/kg, po measured after 24 hrs by UPLC-MS/MS analysis; format: ADME, organism-based
[5] = Clearance in female C57BL/6J mouse at 2 mg/kg, iv measured after 24 hrs by UPLC-MS/MS analysis; format: ADME, organism-based; conditions: in vivo
[6] = Tlast in female C57BL/6J mouse lung at 30 mg/kg, po measured after 24 hrs by UPLC-MS/MS analysis; format: ADME, organism-based; conditions: in vivo
[7] = Unbound Cmax in female C57BL/6J mouse plasma at 30 mg/kg, po measured after 24 hrs by UPLC-MS/MS analysis; format: ADME, organism-based; conditions: in vivo
[8] = Lipophilicity, logD of compound at pH 7.4 by chromatographic hydrophobicity index method; format: physicochemical; conditions: buffer
[9] = Tlast in female C57BL/6J mouse plasma at 30 mg/kg, po measured after 24 hrs by UPLC-MS/MS analysis; format: ADME, organism-based; conditions: in vivo
[10] = Half life in female C57BL/6J mouse at 2 mg/kg, iv measured after 24 hrs by UPLC-MS/MS analysis; format: ADME, organism-based; conditions: in vivo
[11] = Total Cmax in female C57BL/6J mouse lung at 30 mg/kg, po measured after 24 hrs by UPLC-MS/MS analysis; format: ADME, organism-based
[12] = Unbound AUClast in female C57BL/6J mouse plasma at 30 mg/kg, po measured after 24 hrs by UPLC-MS/MS analysis; format: ADME, organism-based; conditions: in vivo
[13] = Unbound Cmax in female C57BL/6J mouse lung at 30 mg/kg, po measured after 24 hrs by UPLC-MS/MS analysis; format: ADME, organism-based; conditions: in vivo
[14] = Metabolic stability in female C57BL/6J mouse liver microsomes assessed as intrinsic clearance measured per mg of protein at 0.5 uM measured upto 45 mins in presence of NADPH regenerating system by HPLC-MS/MS analysis; format: ADME, Microsome; conditions: read-out: CLH
Bile salt export pump = Bile salt export pump (Homo sapiens, UniProt O95342); test: Inhibition of BSEP in cryopreserved sandwich-cultured human hepatocytes by measuring reduction in TCA biliary clearance using taurocholic acid as substrate; format: cell-based, Hepatocyte
Mus musculus [15] = test: Inhibition of LPA-stimulated histamine release in male CD1 mouse plasma assessed as effective dose administered as po dose pretreated for 30 mins followed by LPA addition measured after 2 mins by enzyme immunoassay; format: functional; conditions: 32 min
[16] = Aqueous solubility of the compound at pH 7.4; format: physicochemical; conditions: buffer
[17] = Total AUClast in female C57BL/6J mouse plasma at 30 mg/kg, po measured after 24 hrs by UPLC-MS/MS analysis; format: ADME, organism-based; conditions: in vivo
[18] = Oral bioavailability in female C57BL/6J mouse at 2 mg/kg, iv measured after 24 hrs by UPLC-MS/MS analysis; format: ADME, organism-based; conditions: in vivo
[19] = Unbound AUClast in female C57BL/6J mouse lung at 30 mg/kg, po measured after 24 hrs by UPLC-MS/MS analysis; format: ADME, organism-based; conditions: in vivo
[20] = target: Lysophosphatidic acid receptor 1 (Homo sapiens, UniProt Q92633); test: Antagonist activity at human LPA1 expressed in CHO cells incubated for 30 mins by FLIPR-based calcium mobilization assay
[21] = target: Lysophosphatidic acid receptor 1 (Mus musculus, UniProt P61793); test: Antagonist activity at mouse LPA1 transfected in human HeLa cells incubated for 30 mins by FLIPR-based calcium mobilization assay; format: cell-based
[22] = Antiproliferative activity against LPA treated human HLF cells preincubated for 1 hr followed by LPA stimulation and measured after 24 hrs by BrdU assay; conditions: read-out: pIC50 (converted)
[23] = target: Phosphatidylcholine translocator ABCB4 (Homo sapiens, UniProt P21439); test: Inhibition of MDR3 in human hepatocytes in the presence of TCA incubated for 3 hrs by LC-MS/MS; format: cell-based, Hepatocyte
[24] = target: T1, Solute carrier organic anion transporter family member 1B3 (Homo sapiens, UniProt Q9NPD5); test: Inhibition of human OATP1B3 in HEK293 cells; format: cell-based
T1 sequence (Q9NPD5 whole entry): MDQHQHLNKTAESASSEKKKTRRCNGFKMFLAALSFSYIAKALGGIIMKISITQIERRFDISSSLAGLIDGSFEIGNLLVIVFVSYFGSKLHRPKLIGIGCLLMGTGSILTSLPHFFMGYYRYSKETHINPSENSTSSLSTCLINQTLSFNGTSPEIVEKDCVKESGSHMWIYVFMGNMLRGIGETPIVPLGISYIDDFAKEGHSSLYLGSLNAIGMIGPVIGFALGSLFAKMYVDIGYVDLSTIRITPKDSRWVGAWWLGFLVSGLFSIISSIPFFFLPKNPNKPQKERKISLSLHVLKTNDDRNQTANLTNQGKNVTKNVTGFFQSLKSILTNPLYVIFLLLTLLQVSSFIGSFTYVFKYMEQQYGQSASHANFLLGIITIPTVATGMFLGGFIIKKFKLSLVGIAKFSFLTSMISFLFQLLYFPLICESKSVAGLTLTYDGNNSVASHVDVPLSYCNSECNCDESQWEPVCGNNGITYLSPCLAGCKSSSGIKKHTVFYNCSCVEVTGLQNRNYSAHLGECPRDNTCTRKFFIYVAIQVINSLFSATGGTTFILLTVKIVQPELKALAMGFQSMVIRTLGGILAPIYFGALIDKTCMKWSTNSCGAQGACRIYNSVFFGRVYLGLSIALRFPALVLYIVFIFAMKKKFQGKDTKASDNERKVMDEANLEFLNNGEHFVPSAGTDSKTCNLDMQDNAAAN

[25] = target: T2, ATP-binding cassette sub-family C member 4 (Homo sapiens, UniProt O15439); test: Inhibition of MRP4 (unknown origin) in presence of ATP by membrane vesicular transport assay; format: cell membranes, Membrane vesicle
T2 sequence (O15439 whole entry): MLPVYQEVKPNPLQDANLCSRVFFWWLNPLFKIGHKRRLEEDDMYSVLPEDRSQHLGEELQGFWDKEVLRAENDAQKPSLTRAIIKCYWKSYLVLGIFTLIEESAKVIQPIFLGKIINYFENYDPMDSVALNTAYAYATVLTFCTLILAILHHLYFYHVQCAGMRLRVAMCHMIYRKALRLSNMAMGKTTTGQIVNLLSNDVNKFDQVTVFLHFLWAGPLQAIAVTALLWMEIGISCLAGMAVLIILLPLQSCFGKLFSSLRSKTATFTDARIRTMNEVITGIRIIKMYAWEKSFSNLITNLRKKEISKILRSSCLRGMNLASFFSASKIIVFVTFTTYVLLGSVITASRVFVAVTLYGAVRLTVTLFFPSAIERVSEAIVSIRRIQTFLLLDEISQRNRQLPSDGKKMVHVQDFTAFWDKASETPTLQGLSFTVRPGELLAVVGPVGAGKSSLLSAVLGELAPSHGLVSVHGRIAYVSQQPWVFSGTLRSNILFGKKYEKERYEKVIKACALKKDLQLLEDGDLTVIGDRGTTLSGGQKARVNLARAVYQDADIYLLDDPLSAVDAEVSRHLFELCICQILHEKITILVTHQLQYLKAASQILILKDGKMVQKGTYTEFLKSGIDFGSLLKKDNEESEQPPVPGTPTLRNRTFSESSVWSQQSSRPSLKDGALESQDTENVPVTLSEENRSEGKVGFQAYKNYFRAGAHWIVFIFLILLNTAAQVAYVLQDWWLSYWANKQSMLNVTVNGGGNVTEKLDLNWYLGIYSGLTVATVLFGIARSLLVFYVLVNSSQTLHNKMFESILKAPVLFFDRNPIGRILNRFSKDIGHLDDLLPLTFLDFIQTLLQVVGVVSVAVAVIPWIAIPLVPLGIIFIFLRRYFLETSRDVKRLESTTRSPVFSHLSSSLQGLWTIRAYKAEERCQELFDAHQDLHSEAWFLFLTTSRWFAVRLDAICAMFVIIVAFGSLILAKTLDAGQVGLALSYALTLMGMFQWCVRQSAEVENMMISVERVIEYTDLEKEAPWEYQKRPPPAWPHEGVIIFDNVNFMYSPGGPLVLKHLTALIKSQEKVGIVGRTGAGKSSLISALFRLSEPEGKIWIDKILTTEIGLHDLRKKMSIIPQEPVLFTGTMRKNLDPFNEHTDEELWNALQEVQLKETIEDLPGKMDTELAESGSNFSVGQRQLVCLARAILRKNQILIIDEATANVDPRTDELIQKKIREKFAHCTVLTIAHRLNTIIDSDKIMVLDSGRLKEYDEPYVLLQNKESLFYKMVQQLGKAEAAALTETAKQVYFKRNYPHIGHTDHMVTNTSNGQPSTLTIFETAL

[26] = target: ATP-binding cassette sub-family C member 3 (Homo sapiens, UniProt O15438); test: Inhibition of MRP3 (unknown origin) in presence of ATP by membrane vesicular transport assay; format: cell membranes, Membrane vesicle
[27] = target: ATP-binding cassette sub-family C member 2 (Homo sapiens, UniProt Q92887); test: Inhibition of MRP2 (unknown origin) in presence of ATP by membrane vesicular transport assay; format: cell membranes, Membrane vesicle
[28] = target: T3, Solute carrier organic anion transporter family member 1B1 (Homo sapiens, UniProt Q9Y6L6); test: Inhibition of human OATP1B1 in HEK293 cells; format: cell-based
T3 sequence (Q9Y6L6 whole entry): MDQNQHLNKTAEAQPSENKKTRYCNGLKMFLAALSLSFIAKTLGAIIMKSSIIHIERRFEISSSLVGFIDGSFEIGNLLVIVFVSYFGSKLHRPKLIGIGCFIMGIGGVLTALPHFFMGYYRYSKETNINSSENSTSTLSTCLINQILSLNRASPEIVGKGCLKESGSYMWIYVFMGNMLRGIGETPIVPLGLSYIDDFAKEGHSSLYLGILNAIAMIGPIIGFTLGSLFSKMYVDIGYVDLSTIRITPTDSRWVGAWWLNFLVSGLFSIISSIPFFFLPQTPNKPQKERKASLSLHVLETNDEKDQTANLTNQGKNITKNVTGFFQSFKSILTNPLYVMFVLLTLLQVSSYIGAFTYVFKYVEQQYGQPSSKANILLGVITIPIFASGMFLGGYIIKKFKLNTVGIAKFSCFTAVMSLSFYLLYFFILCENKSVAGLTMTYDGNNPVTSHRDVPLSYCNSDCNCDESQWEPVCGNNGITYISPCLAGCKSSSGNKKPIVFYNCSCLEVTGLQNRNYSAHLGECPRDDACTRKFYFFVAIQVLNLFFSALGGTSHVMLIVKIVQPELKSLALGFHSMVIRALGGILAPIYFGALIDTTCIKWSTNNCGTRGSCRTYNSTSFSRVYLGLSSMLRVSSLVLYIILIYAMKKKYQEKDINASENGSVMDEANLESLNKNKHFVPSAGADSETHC

Mus musculus [29] = test: Antifibrotic activity against bleomycin-induced lung fibrosis in male C57Bl/6 mouse model assessed as reduction in ashcroft score at 50 mg/kg, po bid administered from day 7 to 21 relative to control; format: functional; design: scale not given: the % may be the effect or the level left; conditions: time 15 day

Chain of Bile salt export pump (O95342 whole entry): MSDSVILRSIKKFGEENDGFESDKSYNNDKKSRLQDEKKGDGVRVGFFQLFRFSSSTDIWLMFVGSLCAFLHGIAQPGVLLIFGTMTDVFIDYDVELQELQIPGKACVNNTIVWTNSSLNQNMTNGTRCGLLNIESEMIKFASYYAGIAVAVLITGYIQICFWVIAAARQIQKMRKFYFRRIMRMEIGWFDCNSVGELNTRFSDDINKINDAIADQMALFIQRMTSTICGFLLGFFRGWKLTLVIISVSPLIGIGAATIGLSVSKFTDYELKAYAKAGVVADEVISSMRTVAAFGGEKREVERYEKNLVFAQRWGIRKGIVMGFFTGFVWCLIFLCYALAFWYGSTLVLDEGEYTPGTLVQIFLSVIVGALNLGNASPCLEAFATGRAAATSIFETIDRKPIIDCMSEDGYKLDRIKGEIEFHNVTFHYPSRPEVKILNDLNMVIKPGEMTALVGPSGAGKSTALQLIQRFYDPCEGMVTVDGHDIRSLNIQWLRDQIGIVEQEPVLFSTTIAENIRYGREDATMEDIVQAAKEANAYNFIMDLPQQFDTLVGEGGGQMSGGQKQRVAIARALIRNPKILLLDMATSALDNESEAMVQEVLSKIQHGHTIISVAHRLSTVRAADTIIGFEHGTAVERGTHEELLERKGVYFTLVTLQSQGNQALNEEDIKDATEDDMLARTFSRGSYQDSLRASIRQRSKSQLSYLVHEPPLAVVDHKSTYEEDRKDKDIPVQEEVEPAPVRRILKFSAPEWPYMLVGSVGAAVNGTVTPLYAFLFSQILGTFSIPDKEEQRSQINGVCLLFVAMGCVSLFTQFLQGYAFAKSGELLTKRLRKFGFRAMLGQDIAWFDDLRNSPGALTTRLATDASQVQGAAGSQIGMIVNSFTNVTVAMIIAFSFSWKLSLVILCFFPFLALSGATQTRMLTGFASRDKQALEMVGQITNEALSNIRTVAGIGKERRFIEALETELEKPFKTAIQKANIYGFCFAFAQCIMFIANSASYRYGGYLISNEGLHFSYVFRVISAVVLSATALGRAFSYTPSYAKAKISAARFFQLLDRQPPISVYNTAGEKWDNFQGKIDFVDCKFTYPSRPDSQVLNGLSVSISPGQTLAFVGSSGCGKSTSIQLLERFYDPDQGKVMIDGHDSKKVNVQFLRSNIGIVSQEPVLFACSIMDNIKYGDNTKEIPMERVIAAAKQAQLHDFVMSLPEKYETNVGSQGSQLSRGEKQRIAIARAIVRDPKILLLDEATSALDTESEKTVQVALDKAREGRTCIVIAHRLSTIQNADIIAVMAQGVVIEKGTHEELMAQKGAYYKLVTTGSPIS
Chain of ATP-binding cassette sub-family C member 2 (Q92887 whole entry): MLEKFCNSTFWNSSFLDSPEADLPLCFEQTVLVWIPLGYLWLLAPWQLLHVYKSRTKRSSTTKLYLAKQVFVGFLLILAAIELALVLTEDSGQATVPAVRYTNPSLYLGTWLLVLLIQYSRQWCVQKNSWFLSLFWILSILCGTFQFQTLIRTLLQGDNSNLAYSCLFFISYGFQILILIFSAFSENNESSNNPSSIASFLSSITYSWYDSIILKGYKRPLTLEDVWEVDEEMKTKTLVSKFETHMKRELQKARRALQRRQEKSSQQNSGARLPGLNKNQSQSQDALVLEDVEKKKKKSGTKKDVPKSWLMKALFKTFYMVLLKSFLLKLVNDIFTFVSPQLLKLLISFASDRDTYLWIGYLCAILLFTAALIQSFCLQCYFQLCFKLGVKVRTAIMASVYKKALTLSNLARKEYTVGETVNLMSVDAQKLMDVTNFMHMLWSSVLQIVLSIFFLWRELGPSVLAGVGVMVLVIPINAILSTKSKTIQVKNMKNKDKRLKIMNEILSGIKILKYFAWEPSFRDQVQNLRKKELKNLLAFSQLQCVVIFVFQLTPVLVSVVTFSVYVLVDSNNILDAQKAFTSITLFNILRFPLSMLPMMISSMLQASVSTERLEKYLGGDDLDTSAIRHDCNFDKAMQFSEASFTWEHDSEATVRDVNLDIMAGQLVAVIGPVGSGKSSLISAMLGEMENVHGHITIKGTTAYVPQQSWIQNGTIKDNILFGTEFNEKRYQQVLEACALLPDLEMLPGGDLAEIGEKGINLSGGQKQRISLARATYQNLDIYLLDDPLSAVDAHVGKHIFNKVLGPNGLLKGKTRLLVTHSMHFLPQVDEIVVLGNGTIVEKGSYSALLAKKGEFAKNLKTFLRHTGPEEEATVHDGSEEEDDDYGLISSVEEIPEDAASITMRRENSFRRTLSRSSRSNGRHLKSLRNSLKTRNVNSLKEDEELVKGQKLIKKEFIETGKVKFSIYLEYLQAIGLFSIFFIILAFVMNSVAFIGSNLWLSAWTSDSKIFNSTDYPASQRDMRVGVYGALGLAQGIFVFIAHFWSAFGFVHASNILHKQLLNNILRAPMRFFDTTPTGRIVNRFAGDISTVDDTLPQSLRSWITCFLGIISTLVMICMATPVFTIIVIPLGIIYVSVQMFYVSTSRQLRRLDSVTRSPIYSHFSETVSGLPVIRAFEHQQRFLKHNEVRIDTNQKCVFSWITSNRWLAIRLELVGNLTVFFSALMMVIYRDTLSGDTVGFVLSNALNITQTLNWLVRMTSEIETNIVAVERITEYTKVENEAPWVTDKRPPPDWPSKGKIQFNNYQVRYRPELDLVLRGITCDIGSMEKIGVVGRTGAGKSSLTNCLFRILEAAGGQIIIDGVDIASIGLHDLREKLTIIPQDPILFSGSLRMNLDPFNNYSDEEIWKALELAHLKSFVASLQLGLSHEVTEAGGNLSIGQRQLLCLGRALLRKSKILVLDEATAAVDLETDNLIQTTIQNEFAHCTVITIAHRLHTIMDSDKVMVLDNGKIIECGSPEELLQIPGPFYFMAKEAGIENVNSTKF
Chain of Lysophosphatidic acid receptor 1 (Homo sapiens, UniProt Q92633) (Q92633 whole entry): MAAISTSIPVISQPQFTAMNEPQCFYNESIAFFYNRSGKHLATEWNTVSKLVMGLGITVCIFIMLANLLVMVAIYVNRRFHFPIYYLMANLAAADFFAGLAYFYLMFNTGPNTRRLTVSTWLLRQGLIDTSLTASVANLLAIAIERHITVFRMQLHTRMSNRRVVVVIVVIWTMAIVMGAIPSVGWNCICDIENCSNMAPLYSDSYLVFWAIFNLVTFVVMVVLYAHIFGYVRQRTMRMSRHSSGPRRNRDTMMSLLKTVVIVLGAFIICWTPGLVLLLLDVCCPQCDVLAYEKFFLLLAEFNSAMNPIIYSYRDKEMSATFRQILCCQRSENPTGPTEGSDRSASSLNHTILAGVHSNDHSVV
Chain of Lysophosphatidic acid receptor 1 (Mus musculus, UniProt P61793) (P61793 whole entry): as the sequence (Q92633 whole entry) above, with I4A, I8S, P22Q, H40Y, I61V, E193D, N194H, I269V, S331N, T335N counted along it
Chain of Phosphatidylcholine translocator ABCB4 (P21439 whole entry): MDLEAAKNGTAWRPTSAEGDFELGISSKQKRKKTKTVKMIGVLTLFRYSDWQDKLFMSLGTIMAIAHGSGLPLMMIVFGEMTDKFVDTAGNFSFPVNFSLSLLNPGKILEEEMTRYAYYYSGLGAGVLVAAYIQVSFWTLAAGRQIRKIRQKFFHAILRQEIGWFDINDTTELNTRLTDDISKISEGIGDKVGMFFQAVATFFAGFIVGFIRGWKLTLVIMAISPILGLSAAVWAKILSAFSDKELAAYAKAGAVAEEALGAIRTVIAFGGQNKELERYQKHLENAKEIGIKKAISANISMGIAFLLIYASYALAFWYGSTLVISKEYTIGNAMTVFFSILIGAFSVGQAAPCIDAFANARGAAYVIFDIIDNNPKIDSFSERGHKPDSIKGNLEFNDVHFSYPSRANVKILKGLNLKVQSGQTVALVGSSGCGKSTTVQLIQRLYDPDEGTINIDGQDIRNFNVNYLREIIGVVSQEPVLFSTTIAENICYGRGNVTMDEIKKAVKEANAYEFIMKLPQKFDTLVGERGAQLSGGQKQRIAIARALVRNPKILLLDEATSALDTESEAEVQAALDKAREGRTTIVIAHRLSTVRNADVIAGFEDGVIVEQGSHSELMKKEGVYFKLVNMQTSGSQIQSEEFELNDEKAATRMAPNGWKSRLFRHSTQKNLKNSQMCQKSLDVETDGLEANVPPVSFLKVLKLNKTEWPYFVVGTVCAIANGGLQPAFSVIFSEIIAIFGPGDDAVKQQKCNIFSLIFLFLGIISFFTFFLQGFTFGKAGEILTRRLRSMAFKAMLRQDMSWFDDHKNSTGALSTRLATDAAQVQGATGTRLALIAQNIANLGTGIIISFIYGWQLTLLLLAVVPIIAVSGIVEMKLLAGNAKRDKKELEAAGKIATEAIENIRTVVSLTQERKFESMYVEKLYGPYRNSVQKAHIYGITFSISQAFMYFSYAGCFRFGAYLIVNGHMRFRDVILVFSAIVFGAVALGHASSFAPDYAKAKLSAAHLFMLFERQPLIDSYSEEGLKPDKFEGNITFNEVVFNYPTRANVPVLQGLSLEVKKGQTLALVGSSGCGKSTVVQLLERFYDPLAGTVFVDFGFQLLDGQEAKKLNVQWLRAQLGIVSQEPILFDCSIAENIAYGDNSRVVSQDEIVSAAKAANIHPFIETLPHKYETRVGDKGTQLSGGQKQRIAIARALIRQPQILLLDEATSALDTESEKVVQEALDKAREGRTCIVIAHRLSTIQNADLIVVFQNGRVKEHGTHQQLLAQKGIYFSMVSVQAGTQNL
Chain of BSEP (O95342 whole entry): as the sequence (O95342 whole entry) above

In the case of `Cc1nc(-c2nnn(C)c2NC(=O)O[C@H](C)c2ccccc2Cl)ccc1NC(=O)[C@H]1CCCC[C@@H]1C(=O)O`, the AUClast [1] is reported as 4040 h/ng/mL, the microsomal CLint at 0.5 µM [2] is reported as 0.4 µL/min/mg and the Vd [3] is reported as 2.1 L/kg. It also gave an inhibition at 50 µM (BSEP) of 16%, a Cmax [4] of 3930 ng/mL and a clearance [5] of 17.1 mL/min/kg. It also gave a Tlast [6] of 24 h, a fCmax [7] of 251 ng/mL and a chromatographic logD [8] of 1.18. It also gave a Tlast [9] of 8 h, a half-life [10] of 4.19 h and a Cmax [11] of 2620 ng/mL. It also gave a fAUClast [12] of 430 h/ng/mL, a fCmax [13] of 167 ng/mL and a microsomal CLint at 0.5 µM [14] of 2.7 µL/min/mg. The IC50 (Bile salt export pump) was over 100000 nM, the ED50 (Mus musculus [15]) was 0.1 mg/kg and the solubility [16] was 318 µM (≈ 172 µg/mL). The AUClast [17] was 6720 h/ng/mL, the bioavailability [18] was 22% and the fAUClast [19] was 257 h/ng/mL. It also gave an IC50 [20] of 31.6 nM, an IC50 [21] of 15.8 nM and an IC50 [22] of 37.2 nM.
In the case of `Cc1noc(-c2ccc(-c3ccc(C4(C(=O)O)CC4)cc3)cc2)c1NC(=O)O[C@H](C)c1ccccc1` [BMS-986020], the IC50 [23] is reported as 7940 nM, the IC50 [24] is reported as 631 nM and the IC50 [25] is reported as 6310 nM. For the same molecule, the IC50 [26] was 20000 nM, the IC50 (Bile salt export pump) was 2000 nM and the IC50 [27] was 50100 nM. For the same molecule, the IC50 [28] was 158 nM.
With `COC(=O)c1ccc2c(c1)NC(=O)/C2=C(\Nc1ccc(N(C)C(=O)CN2CCN(C)CC2)cc1)c1ccccc1` [NINTEDANIB] the Activity (Mus musculus [29]) was 23%.
